This note sets out measurements from ChEMBL document CHEMBL3593231, “3,5-Diarylpyrazole Derivatives Obtained by Ammonolysis of the Total Flavonoids from Chrysanthemum indicum Extract Show Potential for the Treatment of Alzheimer's Disease” (J Nat Prod, 2015).

Data set [1] concerns the target T1, Amyloid-beta precursor protein (Homo sapiens, UniProt P05067). The experiment in a line: Inhibition of amyloid beta (1 to 42) (unknown origin) aggregation after 48 hrs by thioflavin T fluorescence assay.
Data set [2] deals with T1, Amyloid-beta precursor protein. The experiment in a line: Potency index, ratio of curcumin IC50 to compound IC50 for inhibition of amyloid beta (1 to 42) (unknown origin) aggregation.
Data set [3] relates to SH-SY5Y. The experiment in a line: Cytotoxicity against human SH-SY5Y cells assessed as cell viability at 10 uM after 48 hrs by MTT assay. Format: cell-based. Background: Tetrazolium dyes change colour on reduction, which living cells bring about.
Data set [4] has as its system SH-SY5Y. The experiment in a line: Neuroprotective activity against amyloid beta (1 to 42)-induced cytotoxicity in human SH-SY5Y cells at 5 to 80 uM after 48 hrs by MTT assay. In kind it is functional, cell-based.

The source made the active and inactive calls. No cut-off for these calls is given here.

In general, IC50 refers to the concentration at which inhibition is half-maximal. Low readings indicate higher potency, high ones lower potency.

T1 sequence (P05067 whole entry): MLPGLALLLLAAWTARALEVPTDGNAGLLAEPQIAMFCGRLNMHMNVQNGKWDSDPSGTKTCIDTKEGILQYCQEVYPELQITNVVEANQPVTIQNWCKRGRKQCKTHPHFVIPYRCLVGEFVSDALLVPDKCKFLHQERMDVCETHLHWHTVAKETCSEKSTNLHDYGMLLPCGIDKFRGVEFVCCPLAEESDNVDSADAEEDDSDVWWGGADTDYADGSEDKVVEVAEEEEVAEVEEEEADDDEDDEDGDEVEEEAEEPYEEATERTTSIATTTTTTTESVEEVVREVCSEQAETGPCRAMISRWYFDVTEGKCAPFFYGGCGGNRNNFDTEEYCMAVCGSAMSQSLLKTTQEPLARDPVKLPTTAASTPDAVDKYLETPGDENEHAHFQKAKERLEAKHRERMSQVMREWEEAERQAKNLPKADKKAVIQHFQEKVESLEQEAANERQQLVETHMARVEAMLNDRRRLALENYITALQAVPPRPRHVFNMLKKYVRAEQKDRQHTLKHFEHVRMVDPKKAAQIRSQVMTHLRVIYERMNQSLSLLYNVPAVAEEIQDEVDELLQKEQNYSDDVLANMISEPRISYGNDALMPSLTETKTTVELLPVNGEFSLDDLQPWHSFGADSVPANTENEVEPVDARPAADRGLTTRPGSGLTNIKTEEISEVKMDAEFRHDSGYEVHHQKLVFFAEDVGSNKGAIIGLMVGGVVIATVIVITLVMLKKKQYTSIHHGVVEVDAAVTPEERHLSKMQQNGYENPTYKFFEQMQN

In turn, `Oc1ccc(-c2cc(-c3c(O)cccc3O)[nH]n2)cc1O` yielded an IC50 in data set [1] of 1.3 µM. Further, the Ratio IC50 in data set [2] amounted to 3. In addition, in the data set on SH-SY5Y [3], the Activity result is recorded as “Non-toxic”. The outcome with SH-SY5Y [4] was Active.
In turn, `Oc1ccc(-c2cc(-c3c(O)cccc3O)[nH]n2)cc1` showed an IC50 in data set [1] of 15.8 µM.
With `COc1cc(-c2cc(-c3c(O)cccc3O)[nH]n2)cc(OC)c1O`, half-maximal inhibition in data set [1] (IC50) required 2.9 µM. Moreover, the Activity result in the data set on SH-SY5Y [3] was “Non-toxic”.
The corresponding values for `COc1cc(-c2cc(-c3c(O)cccc3O)[nH]n2)ccc1O` are 4.3 µM and “Non-toxic”.
